Patent US20220401514A1, “ANTIMICROBIAL, BACTERIOPHAGE-DERIVED POLYPEPTIDES AND THEIR USE AGAINST GRAM-NEGATIVE AND ACID-FAST BACTERIA” (CONTRAFECT CORPORATION, priority 2019, published 2022)
In brackets after ≈: the same amount, converted by molar mass.

Experiments:
[1] = system: Mycobacterium tuberculosis strains; assay: microbe, parasite or virus in culture
Method: MIC values for various Chp peptides were determined using the CLSI method for broth microdilution in 96-well microtiter format.
Next, MIC values for various Chp peptides were determined using the CLSI method above for broth microdilution in 96-well microtiter format for two different Mycobacterium tuberculosis strains. The MIC was determined as explained above for the NTM strains.

[2] = system: inner membrane of Gram-negative bacteria (including P. aeruginosa, E. cloacae, K. pneumoniae, E. coli, and A. baumannii); assay: Inner membrane depolarization, diSC3-5 release; format: cell-based
Text: The mechanism of action of Chp peptides disclosed herein can also be evaluated by measuring the depolarization of the inner membrane of Gram-negative bacteria. […] Upon permeabilization of the outer membrane, the ability of Chp peptides to induce dissipation of the cytoplasmic membrane electrical potential gradient (Δψ) may be examined, for example by following the release of 3,3′-dipropylthiadicarbocyanine (diSC3-5) as a function of time compared to an untreated control. DiSC3-5 is a fluorophore that is a caged cation concentrated within the bacterial inner membrane and under the influence of the bacterial membrane electrical potential gradient. At high concentrations, diSC3-5 self-quenches, leading to the suppression of fluorescence. When the inner membrane deteriorates or becomes leaky for cations, including protons, the A it dissipates, which leads to a release of diSC3-5 and a subsequent increase in fluorescence.

[3] = system: Gram-negative with varying susceptibility to imipenem and relebactam; assay: MIC against CDC Imipenem/Relebactam panel (n = 28); format: cell-based
Method: MIC values were determined using the methodology described above, i.e., the standard broth microdilution reference method defined by CLSI.
See wwwn.cdc.gov/ARIsolateBank/Panel/PanelDetail?ID=10.

LPS = assay: Endotoxin neutralization, limulus amoebocyte lysate (LAL) enzyme assay, LPS binding; format: biochemical; settings: LPS 0.8 EU/mL
Method: CHEM. […] The standard reference samples contained only LPS dissolved in pyrogen-free water. Solutions were mixed well and incubated at 24° C. for 1 hour, and the manufacturers' test procedure for quantitative detection of endotoxins was followed.

[4] = system: Pseudomonas aeruginosa isolates; assay: MIC against CDC Pseudomonas aeruginosa panel (n = 55); format: cell-based
[5] = system: outer membrane of Gram-negative bacteria (including P. aeruginosa, E. cloacae, K. pneumoniae, E. coli, and A. baumannii); assay: Outer membrane permeabilization, NPN uptake; format: cell-based
Text: NPN is largely excluded by intact Gram-negative bacteria, but enhanced uptake of NPN may occur in cells having a damaged or permeable outer membrane. NPN fluoresces strongly under hydrophobic conditions and weakly under aqueous conditions. Therefore, NPN's interaction with membrane phospholipids in the bacterial envelope increases its fluorescence signal and can be used as an indication of a compromised bacterial membrane and a measurement of the outer membrane permeability.

[6] = system: P. aeruginosa strain CFS-1292; assay: LIVE/DEAD stain microscopy in 100% human serum; format: cell-based, Pseudomonas aeruginosa; settings: 15 minutes, 10 μg/mL
Text: Samples were visualized by BF and fluorescence microscopy (10 ms exposure). […] was used to label live cells, and PI was used to label damaged and dead cells.

`NC[C@H]1O[C@H](O[C@H]2[C@H](O)[C@@H](O[C@H]3O[C@H](CO)[C@@H](O)[C@H](N)[C@H]3O)[C@H](N)C[C@@H]2N)[C@H](N)C[C@@H]1O` [tobramycin, reference compound] was tested, and the MIC ([1]; ATCC25177) was 4 µg/mL (≈ 8.56 µM) and the MIC ([1]; ATCC35817) was 4 µg/mL (≈ 8.56 µM).
With “MRLKMARRRYRLPRRRSRRLFSRTALRMHPRNRLRRIMRGGIRF [Chp2]” the “membrane depolarization (diSC3-5)” value [2] was “dose-dependent increase in membrane depolarization, equivalent or superior to that of melittin, LL37, RI-18, and PMBN”, the MIC ([3]; Bank No. 0501, Enterobacter cloacae) was 0.5 µg/mL and the MIC ([3]; Bank No. 0502, Enterobacter cloacae) was 0.5 µg/mL. For the same compound, the MIC ([3]; Bank No. 0504, Klebsiella pneumoniae) was 0.5 µg/mL, the MIC ([3]; Bank No. 0505, Klebsiella pneumoniae) was 1 µg/mL and the MIC ([3]; Bank No. 0506, Klebsiella pneumoniae) was 1 µg/mL. It also gave an MIC ([3]; Bank No. 0507, Klebsiella pneumoniae) of 0.5 µg/mL, an MIC ([3]; Bank No. 0508, Pseudomonas aeruginosa) of 1 µg/mL and an MIC ([3]; Bank No. 0509, Pseudomonas aeruginosa) of 1 µg/mL. The MIC ([3]; Bank No. 0510, Pseudomonas aeruginosa) was 0.5 µg/mL, the MIC ([3]; Bank No. 0511, Pseudomonas aeruginosa) was 0.5 µg/mL and the MIC ([3]; Bank No. 0512, Pseudomonas aeruginosa) was 1 µg/mL. The MIC ([3]; Bank No. 0513, Pseudomonas aeruginosa) was 0.5 µg/mL, the MIC ([3]; Bank No. 0514, Pseudomonas aeruginosa) was 1 µg/mL and the MIC ([3]; Bank No. 0515, Pseudomonas aeruginosa) was 0.5 µg/mL. It also gave an MIC ([3]; Bank No. 0516, Pseudomonas aeruginosa) of 0.5 µg/mL, an MIC ([3]; Bank No. 0517, Serratia marcescens) greater than 8 µg/mL and an MIC ([3]; Bank No. 0518, Pseudomonas aeruginosa) of 1 µg/mL. The MIC ([3]; Bank No. 0519, Morganella morganii) was “ng”, the MIC ([3]; Bank No. 0520, Serratia marcescens) was greater than 8 µg/mL and the MIC ([3]; Bank No. 0521, Serratia marcescens) was greater than 8 µg/mL. For the same compound, the MIC ([3]; Bank No. 0522, Klebsiella pneumoniae) was 0.5 µg/mL, the MIC ([3]; Bank No. 0523, Klebsiella pneumoniae) was 0.5 µg/mL and the MIC ([3]; Bank No. 0524, Klebsiella pneumoniae) was 1 µg/mL. The MIC ([3]; Bank No. 0525, Klebsiella pneumoniae) was 1 µg/mL, the MIC ([3]; Bank No. 0526, Pseudomonas aeruginosa) was 2 µg/mL and the MIC ([3]; Bank No. 0527, Pseudomonas aeruginosa) was 1 µg/mL. The MIC ([3]; Bank No. 0528, Pseudomonas aeruginosa) was 1 µg/mL, the MIC ([3]; Bank No. 0529, Pseudomonas aeruginosa) was 0.5 µg/mL and the MIC50 ([3]; Imipenem/Relebactam panel) was 0.5 µg/mL. The MIC90 ([3]; Imipenem/Relebactam panel) was 1 µg/mL, the LPS binding (LPS; […]-64 μg/mL, 24° C., 1 hour) was “demonstrate binding to LPS” and the “% LPS Bound” value (LPS; peptide concentration 0.5 μg/mL) was 28.7%. For the same compound, the “% LPS Bound” value (LPS; peptide concentration 1 μg/mL) was 28.0%, the “% LPS Bound” value (LPS; peptide concentration 2 μg/mL) was 27.0% and the “% LPS Bound” value (LPS; peptide concentration 4 μg/mL) was 29.3%. The “% LPS Bound” value (LPS; peptide concentration 8 μg/mL) was 31.0%, the “% LPS Bound” value (LPS; peptide concentration 16 μg/mL) was 40.8% and the “% LPS Bound” value (LPS; peptide concentration 32 μg/mL) was 58.1%. For the same compound, the “% LPS Bound” value (LPS; peptide concentration 64 μg/mL) was 71.0%, the MIC ([4]; CDC Antibiotic-Resistant Bank No. 0229) was 0.5 µg/mL and the MIC ([4]; CDC Antibiotic-Resistant Bank No. 0230) was 0.5 µg/mL. For the same compound, the MIC ([4]; CDC Antibiotic-Resistant Bank No. 0231) was 0.5 µg/mL, the MIC ([4]; CDC Antibiotic-Resistant Bank No. 0232) was 0.5 µg/mL and the MIC ([4]; CDC Antibiotic-Resistant Bank No. 0233) was 0.5 µg/mL. The MIC ([4]; CDC Antibiotic-Resistant Bank No. 0234) was 0.5 µg/mL, the MIC ([4]; CDC Antibiotic-Resistant Bank No. 0235) was 0.5 µg/mL and the MIC ([4]; CDC Antibiotic-Resistant Bank No. 0236) was 0.5 µg/mL. It also gave an MIC ([4]; CDC Antibiotic-Resistant Bank No. 0237) of 0.5 µg/mL, an MIC ([4]; CDC Antibiotic-Resistant Bank No. 0238) of 0.5 µg/mL and an MIC ([4]; CDC Antibiotic-Resistant Bank No. 0239) of 1 µg/mL. The MIC ([4]; CDC Antibiotic-Resistant Bank No. 0240) was 1 µg/mL, the MIC ([4]; CDC Antibiotic-Resistant Bank No. 0241) was 1 µg/mL and the MIC ([4]; CDC Antibiotic-Resistant Bank No. 0242) was 0.5 µg/mL. For the same compound, the MIC ([4]; CDC Antibiotic-Resistant Bank No. 0243) was 0.5 µg/mL, the MIC ([4]; CDC Antibiotic-Resistant Bank No. 0244) was 1 µg/mL and the MIC ([4]; CDC Antibiotic-Resistant Bank No. 0245) was 0.5 µg/mL. It also gave an MIC ([4]; CDC Antibiotic-Resistant Bank No. 0246) of 1 µg/mL, an MIC ([4]; CDC Antibiotic-Resistant Bank No. 0247) of 1 µg/mL and an MIC ([4]; CDC Antibiotic-Resistant Bank No. 0248) of 1 µg/mL. For the same compound, the MIC ([4]; CDC Antibiotic-Resistant Bank No. 0249) was 1 µg/mL, the MIC ([4]; CDC Antibiotic-Resistant Bank No. 0250) was 1 µg/mL and the MIC ([4]; CDC Antibiotic-Resistant Bank No. 0251) was 1 µg/mL. It also gave an MIC ([4]; CDC Antibiotic-Resistant Bank No. 0252) of 1 µg/mL, an MIC ([4]; CDC Antibiotic-Resistant Bank No. 0253) of 1 µg/mL and an MIC ([4]; CDC Antibiotic-Resistant Bank No. 0254) of 1 µg/mL. The MIC ([4]; CDC Antibiotic-Resistant Bank No. 0255) was 1 µg/mL, the MIC ([4]; CDC Antibiotic-Resistant Bank No. 0256) was 1 µg/mL and the MIC ([4]; CDC Antibiotic-Resistant Bank No. 0257) was 1 µg/mL. For the same compound, the MIC ([4]; CDC Antibiotic-Resistant Bank No. 0258) was 2 µg/mL, the MIC ([4]; CDC Antibiotic-Resistant Bank No. 0259) was 1 µg/mL and the MIC ([4]; CDC Antibiotic-Resistant Bank No. 0260) was 0.5 µg/mL. The MIC ([4]; CDC Antibiotic-Resistant Bank No. 0261) was 1 µg/mL, the MIC ([4]; CDC Antibiotic-Resistant Bank No. 0262) was 1 µg/mL and the MIC ([4]; CDC Antibiotic-Resistant Bank No. 0263) was 1 µg/mL. The MIC ([4]; CDC Antibiotic-Resistant Bank No. 0264) was 1 µg/mL, the MIC ([4]; CDC Antibiotic-Resistant Bank No. 0265) was 1 µg/mL and the MIC ([4]; CDC Antibiotic-Resistant Bank No. 0266) was 1 µg/mL. The MIC ([4]; CDC Antibiotic-Resistant Bank No. 0267) was 1 µg/mL, the MIC ([4]; CDC Antibiotic-Resistant Bank No. 0268) was 1 µg/mL and the MIC ([4]; CDC Antibiotic-Resistant Bank No. 0269) was 1 µg/mL. The MIC ([4]; CDC Antibiotic-Resistant Bank No. 0270) was 0.5 µg/mL, the MIC ([4]; CDC Antibiotic-Resistant Bank No. 0271) was 1 µg/mL and the MIC ([4]; CDC Antibiotic-Resistant Bank No. 0272) was 1 µg/mL. It also gave an MIC ([4]; CDC Antibiotic-Resistant Bank No. 0763) of 1 µg/mL, an MIC ([4]; CDC Antibiotic-Resistant Bank No. 0764) of 1 µg/mL and an MIC ([4]; CDC Antibiotic-Resistant Bank No. 0765) of 1 µg/mL. The MIC ([4]; CDC Antibiotic-Resistant Bank No. 0766) was 1 µg/mL, the MIC ([4]; CDC Antibiotic-Resistant Bank No. 0767) was 1 µg/mL and the MIC ([4]; CDC Antibiotic-Resistant Bank No. 0768) was 0.5 µg/mL. It also gave an MIC ([4]; CDC Antibiotic-Resistant Bank No. 0769) of 1 µg/mL, an MIC ([4]; CDC Antibiotic-Resistant Bank No. 0770) of 1 µg/mL and an MIC ([4]; CDC Antibiotic-Resistant Bank No. 0771) of 1 µg/mL. The MIC ([4]; CDC Antibiotic-Resistant Bank No. 0772) was 1 µg/mL, the MIC ([4]; CDC Antibiotic-Resistant Bank No. 0773) was 1 µg/mL and the MIC50 ([4]; Pseudomonas aeruginosa panel) was 1 µg/mL. The MIC90 ([4]; Pseudomonas aeruginosa panel) was 1 µg/mL, the “outer membrane permeability (NPN uptake)” value [5] was “dose-dependent increase in outer membrane permeability, equivalent to that of colistin, LL37, and melittin” and the “killing of P. aeruginosa, Live/Dead Cell Viability Kit” value [6] was “reduction of live bacteria”.
